Tests used:
Format in all cases: cell-based
[1] = Compound 1 selectivity panel, buffer IC50; conditions: Receptor CCR12
Procedure: (§1) The selectivity of Compound 1 was tested by determining the IC50 value against a diverse panel of receptors, enzymes, and ion channels. […] See, Table 1.

CCR1 = molecular target: T1, CCR1 (Homo sapiens, UniProt P32246); experiment: Compound 1 selectivity panel, buffer IC50; conditions: Receptor CCR1
T1 sequence (P32246 1-355): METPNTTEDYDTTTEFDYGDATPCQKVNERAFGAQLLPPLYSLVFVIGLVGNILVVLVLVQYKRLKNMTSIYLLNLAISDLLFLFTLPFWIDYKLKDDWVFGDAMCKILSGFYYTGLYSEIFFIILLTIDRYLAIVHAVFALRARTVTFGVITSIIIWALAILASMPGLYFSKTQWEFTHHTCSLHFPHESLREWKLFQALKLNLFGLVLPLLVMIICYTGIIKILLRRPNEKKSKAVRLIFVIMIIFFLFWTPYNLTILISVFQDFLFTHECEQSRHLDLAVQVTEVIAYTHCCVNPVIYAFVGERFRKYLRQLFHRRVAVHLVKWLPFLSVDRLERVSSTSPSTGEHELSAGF
Procedure: as §1

CCR2 = CCR2 (Homo sapiens, UniProt P41597); experiment: Compound 1 selectivity panel, buffer IC50; conditions: Receptor CCR2
Procedure: as §1

CCR5 = CCR5 (Homo sapiens, UniProt P51681); experiment: Compound 1 selectivity panel, buffer IC50; conditions: Receptor CCR5
Procedure: as §1

CCR6 = molecular target: T2, CCR6 (Homo sapiens, UniProt P51684); experiment: Compound 1 selectivity panel, buffer IC50; conditions: Receptor CCR6
T2 sequence (P51684 1-374): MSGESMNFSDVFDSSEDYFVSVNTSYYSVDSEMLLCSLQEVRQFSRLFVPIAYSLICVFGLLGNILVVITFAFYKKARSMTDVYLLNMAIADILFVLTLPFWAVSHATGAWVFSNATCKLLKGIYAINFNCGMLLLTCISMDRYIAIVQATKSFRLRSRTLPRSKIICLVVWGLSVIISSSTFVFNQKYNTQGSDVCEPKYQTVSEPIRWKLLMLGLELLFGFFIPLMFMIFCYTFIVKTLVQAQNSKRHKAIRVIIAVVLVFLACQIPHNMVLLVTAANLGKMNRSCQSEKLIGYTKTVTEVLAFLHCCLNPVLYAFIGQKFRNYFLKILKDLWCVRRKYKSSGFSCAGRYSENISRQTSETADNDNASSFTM
Procedure: as §1

CCR7 = molecular target: T3, CCR7 (Homo sapiens, UniProt P32248); experiment: Compound 1 selectivity panel, buffer IC50; conditions: Receptor CCR7
T3 sequence (P32248 25-378): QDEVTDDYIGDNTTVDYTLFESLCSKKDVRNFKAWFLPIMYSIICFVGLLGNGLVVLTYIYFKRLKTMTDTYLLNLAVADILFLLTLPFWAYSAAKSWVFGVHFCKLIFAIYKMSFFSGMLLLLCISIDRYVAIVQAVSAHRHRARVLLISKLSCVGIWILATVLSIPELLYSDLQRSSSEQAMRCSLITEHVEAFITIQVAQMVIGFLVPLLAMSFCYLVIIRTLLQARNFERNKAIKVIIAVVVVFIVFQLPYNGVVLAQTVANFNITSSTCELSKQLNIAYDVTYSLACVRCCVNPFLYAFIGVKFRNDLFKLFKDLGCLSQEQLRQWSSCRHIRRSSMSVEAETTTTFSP
Procedure: as §1

CCR8 = CCR8 (Homo sapiens, UniProt P51685); experiment: Compound 1 selectivity panel, buffer IC50; conditions: Receptor CCR8
Procedure: as §1

CXCR1 = molecular target: T4, CXCR1 (Homo sapiens, UniProt P25024); experiment: Compound 1 selectivity panel, buffer IC50; conditions: Receptor CXCR1
T4 sequence (P25024 1-350): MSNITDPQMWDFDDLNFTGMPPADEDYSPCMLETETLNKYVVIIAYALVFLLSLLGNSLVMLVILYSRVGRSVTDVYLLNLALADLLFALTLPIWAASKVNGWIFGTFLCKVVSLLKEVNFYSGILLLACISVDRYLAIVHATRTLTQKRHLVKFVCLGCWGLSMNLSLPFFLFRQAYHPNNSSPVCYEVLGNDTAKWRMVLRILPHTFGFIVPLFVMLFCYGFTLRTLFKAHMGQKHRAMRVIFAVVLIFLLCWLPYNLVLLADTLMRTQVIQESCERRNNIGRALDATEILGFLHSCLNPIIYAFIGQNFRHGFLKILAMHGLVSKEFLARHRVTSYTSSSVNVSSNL
Procedure: as §1

CXCR2 = molecular target: T5, CXCR2 (Homo sapiens, UniProt P25025); experiment: Compound 1 selectivity panel, buffer IC50; conditions: Receptor CXCR2
T5 sequence (P25025 1-360): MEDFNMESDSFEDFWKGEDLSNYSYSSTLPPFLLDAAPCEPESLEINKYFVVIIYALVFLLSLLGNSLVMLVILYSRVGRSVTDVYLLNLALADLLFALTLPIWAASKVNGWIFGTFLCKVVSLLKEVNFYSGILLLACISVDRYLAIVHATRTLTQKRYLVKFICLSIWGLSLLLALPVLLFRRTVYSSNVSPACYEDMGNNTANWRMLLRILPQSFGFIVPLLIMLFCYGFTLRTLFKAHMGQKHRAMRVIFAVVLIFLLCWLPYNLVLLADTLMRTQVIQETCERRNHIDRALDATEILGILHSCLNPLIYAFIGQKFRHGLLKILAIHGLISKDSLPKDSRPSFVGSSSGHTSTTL
Procedure: as §1

CXCR3 = molecular target: T6, CXCR3 (Homo sapiens, UniProt P49682); experiment: Compound 1 selectivity panel, buffer IC50; conditions: Receptor CXCR3
T6 sequence (P49682 1-368): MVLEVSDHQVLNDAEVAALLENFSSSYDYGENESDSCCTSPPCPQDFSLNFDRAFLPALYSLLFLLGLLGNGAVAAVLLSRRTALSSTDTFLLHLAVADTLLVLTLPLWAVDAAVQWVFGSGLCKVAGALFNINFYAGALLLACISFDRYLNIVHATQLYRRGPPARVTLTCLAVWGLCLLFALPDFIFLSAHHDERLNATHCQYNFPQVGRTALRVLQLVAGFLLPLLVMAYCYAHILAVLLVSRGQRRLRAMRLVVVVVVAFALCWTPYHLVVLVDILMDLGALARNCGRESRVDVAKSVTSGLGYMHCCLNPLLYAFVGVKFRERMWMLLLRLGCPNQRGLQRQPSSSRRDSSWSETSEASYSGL
Procedure: as §1

CXCR4 = CXCR4 (Homo sapiens, UniProt P61073); experiment: Compound 1 selectivity panel, buffer IC50; conditions: Receptor CXCR4
Procedure: as §1

CXCR6 = CXCR6 (Homo sapiens, UniProt O00574); experiment: Compound 1 selectivity panel, buffer IC50; conditions: Receptor CXCR6
Procedure: as §1

Measured: IC50

Chain of CCR2 (P41597 whole entry, species assumed): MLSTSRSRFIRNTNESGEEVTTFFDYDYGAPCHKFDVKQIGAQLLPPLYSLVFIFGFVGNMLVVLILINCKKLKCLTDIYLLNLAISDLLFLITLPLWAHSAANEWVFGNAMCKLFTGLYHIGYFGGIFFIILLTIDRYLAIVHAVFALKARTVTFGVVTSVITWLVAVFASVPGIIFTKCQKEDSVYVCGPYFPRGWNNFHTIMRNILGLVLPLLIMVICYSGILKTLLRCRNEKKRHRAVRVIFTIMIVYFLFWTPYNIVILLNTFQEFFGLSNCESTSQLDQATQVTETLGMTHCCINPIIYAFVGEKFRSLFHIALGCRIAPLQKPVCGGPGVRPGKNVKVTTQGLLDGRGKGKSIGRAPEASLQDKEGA
Chain of CCR5 (P51681 whole entry, species assumed): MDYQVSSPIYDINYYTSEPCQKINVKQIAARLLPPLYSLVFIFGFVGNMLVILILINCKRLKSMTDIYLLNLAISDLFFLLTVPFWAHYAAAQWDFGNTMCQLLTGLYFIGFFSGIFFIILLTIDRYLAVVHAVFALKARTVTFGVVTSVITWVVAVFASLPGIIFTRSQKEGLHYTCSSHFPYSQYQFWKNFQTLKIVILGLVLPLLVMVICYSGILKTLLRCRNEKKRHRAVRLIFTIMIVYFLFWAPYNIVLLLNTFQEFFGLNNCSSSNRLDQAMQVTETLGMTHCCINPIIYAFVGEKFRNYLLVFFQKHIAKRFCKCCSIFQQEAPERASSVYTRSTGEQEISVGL
Chain of CXCR6 (O00574 whole entry, species assumed): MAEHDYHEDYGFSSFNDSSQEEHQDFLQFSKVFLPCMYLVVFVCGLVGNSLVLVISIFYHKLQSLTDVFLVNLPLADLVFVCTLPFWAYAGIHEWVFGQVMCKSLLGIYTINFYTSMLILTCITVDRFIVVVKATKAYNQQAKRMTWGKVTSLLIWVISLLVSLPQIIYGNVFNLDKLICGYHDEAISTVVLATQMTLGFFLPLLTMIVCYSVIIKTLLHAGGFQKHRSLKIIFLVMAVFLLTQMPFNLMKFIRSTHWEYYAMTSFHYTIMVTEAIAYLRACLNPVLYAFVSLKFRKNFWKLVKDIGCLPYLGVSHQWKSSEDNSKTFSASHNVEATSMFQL
Chain of CXCR4 (P61073 whole entry, species assumed): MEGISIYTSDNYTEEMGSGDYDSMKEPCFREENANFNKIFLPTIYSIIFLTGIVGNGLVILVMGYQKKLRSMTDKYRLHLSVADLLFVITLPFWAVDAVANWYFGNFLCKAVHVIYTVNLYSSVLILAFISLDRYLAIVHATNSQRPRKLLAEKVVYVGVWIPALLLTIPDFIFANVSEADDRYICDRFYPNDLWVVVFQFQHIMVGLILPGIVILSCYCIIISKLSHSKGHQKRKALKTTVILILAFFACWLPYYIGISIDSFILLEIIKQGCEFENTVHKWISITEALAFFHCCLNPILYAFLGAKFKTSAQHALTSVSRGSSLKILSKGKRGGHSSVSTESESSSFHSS
Chain of CCR8 (P51685 whole entry, species assumed): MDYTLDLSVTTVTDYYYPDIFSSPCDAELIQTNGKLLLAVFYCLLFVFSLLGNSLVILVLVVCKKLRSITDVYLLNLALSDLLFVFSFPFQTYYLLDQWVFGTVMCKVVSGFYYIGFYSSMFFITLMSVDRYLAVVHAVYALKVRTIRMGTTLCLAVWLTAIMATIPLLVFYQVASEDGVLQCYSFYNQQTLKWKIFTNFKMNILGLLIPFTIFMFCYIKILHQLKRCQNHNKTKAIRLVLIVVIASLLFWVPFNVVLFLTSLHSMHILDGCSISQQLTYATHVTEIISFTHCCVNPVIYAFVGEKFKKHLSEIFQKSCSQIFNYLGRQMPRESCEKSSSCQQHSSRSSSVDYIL

C[C@@H](Nc1cc(C2CCN([C@H]3CCCN(CCC(=O)O)C3)CC2)ccc1Cl)c1ccc(Cl)cc1Cl [Compound 1]
> 10 µM: all assays above
